# Laboratory results as given in patent US8841233B2, “Herbicidal compositions comprising 4-amino-3-chloro-5-fluoro-6-(4-chloro-2-fluoro-3-methoxyphenyl) pyridine-2-carboxylic acid or a derivative thereof and 4-hydroxyphenyl-pyruvate dioxygenase (HPPD) inhibitors” (Dow Agrosciences LLC, priority 2012, dated 2014).
# Test system: ECHOR
# Assay: In-water applied weed control, transplanted paddy rice, greenhouse (Example II)
# Type: in vivo, Echinochloa oryzoides (Ard.) Fritsch
# Experimental: Evaluation of in-Water Applied Herbicidal Mixtures for Weed Control in Transplanted Paddy Rice
# Weed seeds or nutlets of the desired test plant species were planted in puddled soil (mud) prepared by mixing a shredded, non-sterilized mineral soil (50.5 percent silt, 25.5 percent clay, and 24 percent sand, with a pH of about 7.6 and an organic matter content of about 2.9 percent) and water at a 1:1 volumetric ratio. The prepared mud was dispensed in 365 mL aliquots into 16-ounce (oz.) non-perforated plastic pots with a surface area of 86.59 square centimeters (cm^2) leaving a headspace of 3 centimeters (cm) in each pot. Mud was allowed to dry overnight prior to planting or transplanting. Rice seeds were planted in Sun Gro MetroMix® 306 planting mixture, which typically has a pH of 6.0 to 6.8 and an organic matter content of about 30 percent, in plastic plug trays. Seedlings at the second or third leaf stage of growth were transplanted into 840 mL of mud contained in 32-oz. non-perforated plastic pots with a surface area of 86.59 cm^2 4 days prior to herbicide application. The paddy was created by filling the headspace of the pots with 2.5 to 3 cm of water. When required to ensure good germination and healthy plants, a fungicide treatment and/or other chemical or physical treatment was applied. The plants were grown for 4-22 days in a greenhouse with an approximate 14 h photoperiod which was maintained at about 29′C during the day and 26° C. during the night. Nutrients were added as Osmocote® (19:6:12, N:P:K+ minor nutrients) at 2 g per 16-oz. pot and 4 g per 32-oz. pot. Water was added on a regular basis to maintain the paddy flood, and supplemental lighting was provided with overhead metal halide 1000-Watt lamps as necessary. The plants were employed for testing when they reached the first through fourth true leaf stage.
# Treatments consisted of the acid or esters of 4-amino-3-chloro-5-fluoro-6-(4-chloro-2-fluoro-3-methoxy-phenyl)pyridine-2-carboxylic acid (compound A) each formulated as an SC (suspension concentrate) and various herbicidal components alone and in combination. Forms of compound A were applied on an acid equivalent basis.
# Other herbicidal components were applied on an active ingredient basis and included 4-hydroxyphenyl pyruvate dioxygenase (HPPD)-inhibiting herbicides mesotrione formulated as Callisto®, sulcotrione formulated as Mikado®, pyrazolynate formulated as Sunbird® 10% GR, and benzobicyclon formulated as Benzobicyclon 3.5% or technical material.
# Treatment requirements for each compound or herbicidal component were calculated based upon the rates being tested, the concentration of active ingredient or acid equivalent in the formulation, an application volume of 2 mL per component per pot, and an application area of 86.59 cm^2 per pot.
# For formulated compounds, a measured amount was placed in an individual 100 or 200 mL glass vial and was dissolved in a volume of 1.25% (v/v) Agri-Dex® crop oil concentrate to obtain application solutions.
# For technical grade compounds, a weighed amount was placed in an individual 100 to 200 mL glass vial and was dissolved in a volume of acetone to obtain concentrated stock solutions. […] The concentrated stock solutions obtained were diluted with an equivalent volume of an aqueous mixture containing 2.5% (v/v) crop oil concentrate so that the final application solutions contained 1.25% (v/v) crop oil concentrate.
# Applications were made by injecting with a pipetter appropriate amounts of the application solutions, individually and sequentially, into the aqueous layer of the paddy. Control plants were treated in the same manner with the solvent blank. Applications were made so that all treated plant material received the same concentrations of acetone and crop oil concentrate.
# The treated plants and control plants were placed in a greenhouse as described above and water was added as needed to maintain a paddy flood. […]
Structure (SMILES),Visual Weed Control (%) - 22 DAA ECHOR Obs (21.2 gae/ha) [%],Visual Weed Control (%) - 20 DAA ECHOR Obs (42.4 gae/ha) [%],Visual Weed Control (%) - 22 DAA ECHOR Obs (42.4 gae/ha) [%],Visual Weed Control (%) - 20 DAA ECHOR Obs (84.8 gae/ha) [%],Visual Weed Control (%) - 20 DAA ECHOR Obs (4.38 gae/ha) [%],Visual Weed Control (%) - 21 DAA ECHOR Obs (4.38 gae/ha) [%],Visual Weed Control (%) - 20 DAA ECHOR Obs (8.75 gae/ha) [%],Visual Weed Control (%) - 21 DAA ECHOR Obs (8.75 gae/ha) [%],Visual Weed Control (%) - 22 DAA ECHOR Obs (8.75 gae/ha) [%],Visual Weed Control (%) - 20 DAA ECHOR Obs (17.5 gae/ha) [%],Visual Weed Control (%) - 21 DAA ECHOR Obs (17.5 gae/ha) [%],Visual Weed Control (%) - 22 DAA ECHOR Obs (17.5 gae/ha) [%],Visual Weed Control (%) - 21 DAA ECHOR Obs (96 gae/ha) [%]
"COc1c(Cl)ccc(-c2nc(C(=O)O)c(Cl)c(N)c2F)c1F [Compound A Acid, 4-amino-3-chloro-6-(4-chloro-2-fluoro-3-methoxyphenyl)-5-fluoropyridine-2-carboxylic acid]",20,18,40,33,,,,,,,,,
"COc1c(Cl)ccc(-c2nc(C(=O)OCc3ccccc3)c(Cl)c(N)c2F)c1F [Compound A Benzyl Ester, benzyl ester of 4-amino-3-chloro-5-fluoro-6-(4-chloro-2-fluoro-3-methoxy-phenyl)pyridine-2-carboxylic acid]",,,,,10,25,20,25,40,30,60,95,80
